“Also recorded” adds a separate entry of the source. Ends that are not written are not given here.

The test system of series [1] is rat myocardium. To be noted: in vivo; cited from earlier work.
Series [2] has as its system mouse myocardium. The settings on record: in vivo; cited from earlier work.
Details of series [3]: species or system mice. To be noted: mouse, in vivo. The text has this: Peptide assemblies (stained brown and indicated by arrows) were found at the cortex of the lymph nodes by wk 1 and continued to persist up to wk 6. […] Although the mechanism of trafficking is unknown, co-staining for macrophages, dendritic cells, or B cells might provide further insights into the uptake and processing of these peptides in vivo.
Immunohistochemistry Freshly dissected skeletal muscle and inguinal lymph nodes were fixed overnight with 4% formaldehyde in phosphate-buffered saline (pH 7.2) and the tissue was processed and embedded in paraffin at the Human Tissue Resource Center (University of Chicago). The paraffin blocks were cut on a microtome (Leica, USA) into 4 μm thick sections and were deparaffinized with xylene and rehydrated with gradient ethanol. The sections were boiled in 10 mM sodium citrate solution (pH 6.0) for 10 min to retrieve the antigens and blocked with 5% BSA in PBS for 1 hr. The sections were then incubated with Horseradish Peroxidase Avidin D (Vector Laboratories, CA) for 3 hrs, and the biotin was visualized using a peroxidase substrate diaminobenzidine kit (Vector Laboratories, CA). The sections were also counterstained with Mayer's hematoxylin solution (Sigma-Aldrich, USA) for 10 mins. The slides were dehydrated with gradient ethanol and xylene and mounted with Permount Mounting Medium (Fisher Scientific, PA). Images were acquired using a Zeiss Axioskop at the Microscopy Core Facility (University of Chicago).

The conditions of series [4]: ranges: high and low values among three batches for each peptide.
Experimental: Endotoxin levels of all formulations were tested using a Limulus Amebocyte Lystae (LAL) chromogenic end point assay (Lonza, USA).
To account for batch-to-batch variability three different sets of peptides were synthesized for immunizing mice.
Series [5] concerns C57BL/6 mice. Briefly: Subcutaneous immunization with OVA-KFE8 enantiomers, antibody responses by ELISA (Example 4). The series is classed as in vivo. (In an ELISA, binding on a coated surface is turned into a signal by an enzyme label.)
Series [6] concerns OT-II cells. Briefly: In vitro activation assay of OT-II lymphocytes on nanofiber-coated wells, cytokines by flow cytometry. The settings on record: 6 h stimulation. Format: cell-based, mice. The text has this: OVA-KFE8D Nanofibers Induce Robust CD4 T Helper Cell Responses. OVA (ISQAVHAAHAEINEAGR) (SEQ ID NO: 26), is a well-characterized CD4+ T helper epitope, a portion of which is also recognized by B cells (ISQAVHAAHA) (SEQ ID NO: 58) (Robertson, et al., 2000). Therefore, immunization with OVA leads to both CD4+ T cell activation and antibody production and studies have shown that antibody responses against OVA are CD4+ T celldependent (Rudra, et al., 2012; Robertson, et al., 2000). To assess whether the enantiomeric nature of nanofibers that contributed to enhanced antibody responses also leads to differential CD4+ T helper cell functionality, we utilized transgenic mice (OT-II mice) that have CD4+ T cells (OT-II cells) whose receptors recognize OVA in the context of MHC-class II molecules.30 CD4+ T cell responses were assessed using an in vitro activation assay. Whole lymphocyte extracts (containing antigen-presenting cell, B cell, and CD4+ T cell populations) from OT-II mice were cultured in wells coated with OVA-bearing enantiomers, and 6 h later the production of cytokines IFN-γ and IL-2 were measured using flow cytometry. Lymphocytes stimulated with PBS or free OVA peptide were used as negative and positive controls, respectively.
A general note: Flow cytometry measures light scatter and fluorescence of single cells or particles in a stream.

In series [7] the test system is CFSE-labeled OT-II cells. Kind of series: Footpad adoptive transfer of CFSE-labeled OT-II cells one week after immunization. Format: in vivo, mice. To be noted: cells transferred a week after footpad immunization, lymph nodes 24 h later. From the text: OVA-KFE8D Nanofibers Prolong Antigen Presentation at the Immunization Site. Previous studies from our lab have shown that peptide nanofiber vaccines (all L-amino acids) are cleared from the immunization site as early as 10 days after vaccination compared to depot forming adjuvants (Chesson, et al., 2014). To investigate whether the reduced proteolytic susceptibility of D-amino acid peptides prolongs antigen-presentation at the immunization site, we used adoptive transfer experiments where mice were injected at the immunization site with CFSElabeled OT-II cells (OVA-specific CD4+ T cells) and measured proliferation of the OT-II cells (in response to existing antigen) via the dilution of the CFSE label using flow cytometry. For these studies, immunizations and adoptive transfers were done in the footpads to maximize antigen depot-OT-II CD4+ T cell interaction and easy collection of draining lymph nodes. Mice were immunized with OVA-KFE8L or OVA-KFE8D nanofibers and a week later CFSE-labeled OT-II cells were transferred at the vaccination site. Twenty-four hours later, mice were sacrificed and draining lymph nodes were extracted.

In series [8] the target is T1, streptavidin-conjugated gold particles (Streptomyces avidinii, UniProt P22629).
T1 construct: purchased Sigma
T1 sequence (P22629 25-183): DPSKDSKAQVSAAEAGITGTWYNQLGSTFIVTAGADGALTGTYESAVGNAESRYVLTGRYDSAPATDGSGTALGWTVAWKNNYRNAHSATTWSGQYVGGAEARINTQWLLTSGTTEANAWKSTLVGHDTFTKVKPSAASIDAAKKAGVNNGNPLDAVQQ
Briefly: Streptavidin-gold labelling of fibrils imaged by TEM. The series is classed as binding. The settings on record: 5 nm streptavidin-conjugated gold. The text has this:
The availability of the OVA epitope on the surface of O-Q11 nanofibers was confirmed by TEM and by ELISA. To label epitopes in TEM samples, an N-terminally biotinylated O-Q11 was synthesized with a single biotin tag directly adjacent to the OVA sequence. This biotinylated peptide produced fibrils that appeared morphologically similar to O-Q11 (FIG. 2D). Five-nanometer streptavidin-conjugated gold particles were then used to probe epitope availability on the fibril surface, with unmodified Q11 serving as a negative control. […] To confirm this finding and to quantify the availability of the entire epitope, ELISA was employed. Plates coated with OVA and O-Q11 peptides were probed with antisera from mice immunized with OVA, either with or without complete Freund's adjuvant (CFA).
Transmission Electron Microscopy. Peptides were dissolved in deionized water and mixed 6:1 with PBS to produce working peptide concentrations of 330 μM. After fibrillizing for 4h, peptides were applied to 400 mesh gold grids with carbon support films, negative-stained with 1% uranyl acetate, and imaged on a Tecnai F30 TEM. For gold staining, prior to negative-staining grids were placed upside-down on a droplet of blocking solution (0.2% acetylated BSA, 0.1% gelatin from cold water fish skin in PBS) for 5 min, then for 2 h on a droplet of 5 nm colloidal gold conjugated to streptavidin (Sigma). […]

Series [9] concerns C57BL/6 mice. Kind of series: Subcutaneous immunization of mice, serum antibody titers and isotypes by ELISA (Example 1). The series is classed as in vivo. The protocol: To investigate how fibrillization affected the immunogenicity of OVA, C57BL/6 mice were immunized subcutaneously with the different peptides and boosted with additional peptide at 28 days (see methods). Serum was collected seven days after the boost, and levels of various immunoglobulins were measured.
Immunizations. […] Stock solutions were then diluted in sterile, endotoxin-free PBS to working concentrations. […] CFA-adjuvanted groups received the same volume and total peptide dose, prepared by emulsifying peptide/PBS solutions 1:1 in CFA. […] CFA groups were boosted in incomplete Freund's adjuvant (IFA). Mice receiving mixtures of Q11 and OVA received 100 nmol of each peptide in the first injection and 50 nmol of each in the second. Seven days after the boost, the mice were sacrificed, and sera and spleens were harvested.
Determination of antibody titers. High-binding ELISA plates (eBioscience) were coated with either 20 μg/mL peptide in PBS or PBS alone (for uncoated background subtraction) overnight at 4° C. […] To determine titers for each antiserum, background absorbance values from uncoated wells were subtracted from coated wells, and net absorbances were compared to cutoff values. The cutoff consisted of the mean plus three times the standard deviation of the negative control group (mice receiving OVA without adjuvant) for each corresponding dilution. Any sample dilutions having absorbances above this cutoff value were considered positive readings. The titer was considered as the highest dilution for which it and all lower dilutions had positive readings. If no positive dilutions were present the titer was considered to be 10^2. […] Antibody isotypes were analyzed similarly using a mouse monoclonal antibody kit containing goat anti-mouse IgG1, IgG2a, IgG2b, IgG3, and IgM (Sigma).

In series [10] the test system is CFSE labeled OTII cells. Kind of series: Adoptive transfer of CFSE-labeled OTII T cells and immunization. Format: in vivo, mice. The settings on record: 100 nmol s.c., five days after immunization, spleen and lymph nodes. The protocol: Antibody responses to self-assembled peptides are T cell-dependent. […] To determine the requirement for T cells, an adoptive T cell transfer assay was performed. Specifically, mice were injected with CFSE labeled […] cells, which express receptors for the H-2^b restricted OVA epitope. Antigen-mediated proliferation causes a decrease in the CFSE intensity which can be detected by flow cytometry.
Adoptive Transfer of T cells OTII transgenic mice on C57BL/6 background, whose T cells recognize the OVA peptide and carry a marker to distinguish them from naïve T cells from B6 mice (CD90.1 congenic). In vivo CD4+ T cell proliferation was analyzed after adoptive transfer into mice and immunization with the peptides. Briefly, splenocytes and lymph nodes of OTII+ C57BL/6 mice were processed into a single cell suspension and enriched for CD4+ T cells, by negative magnetic separation (Miltenyi Biotec). […] After staining, cells were washed twice with FACS buffer and samples were run on the LSR-II (BD Biosciences, NJ) flow cytometer and analyzed for evidence of proliferation as indicated by dilution of CFSE intensity using. FlowJo cytometry analysis software (Tree Star, OR) was used to analyze and quantify the results. […]

Series [11] deals with primary human endothelial cells. To be noted: cited from earlier work.
For series [12], the system named is mice. The settings on record: mouse, in vivo; cited from earlier work.
Series [13] relates to KO mice lacking both the αβ and γδ receptors. Briefly: Immunization of T cell receptor KO mice, antibody production. The series is classed as in vivo. To be noted: over 6 wks. From the text: To confirm the necessity of T cells, KO mice lacking both the αβ and γδ receptors for CD4^+ T cells were immunized with OVA-Q11 along with wild type controls. […] The wild type control mice responded as expected. […] To ensure that the KO mice are capable of eliciting immune responses, they were immunized with a T-independent antigen, NP-Ficoll. […] This finding might not be surprising because OVA is a strong MHC class II peptide, containing both B and T cell determinants.

Series [14] concerns C57BL/6 mice. Kind of series: Long-term serum antibody ELISA after immunization with Q11-linked peptides (Example 2). The settings on record: boost at wk 4.
Experimental: The dose dependence and longevity of the antibody response to OVA-Q11 was further investigated and antibody responses against the malarial peptide epitope (NANP)3 coupled to Q11 were also characterized. Mice were immunized with two different doses of OVA-Q11 (100 nmol and 50 nmol), or 100 nmol of (NANP)3-Q11 and boosted with half the dose at wk 4. Mice were bled on a weekly basis up to wk 6, once at wk 8, and once every four weeks thereafter.
Animals and Immunizations Peptides were dissolved in sterile water (8 mM stock), incubated overnight at 4° C., and diluted in sterile PBS (2 mM working concentration) prior to immunizations. For the malaria peptide, (NANP)3-Q11, the formulations were incubated in PBS overnight to ensure complete fibril formation. […] Female C57BL/6 mice (6-8 weeks old, Taconic Farms, IN) were immunized subcutaneously with two 50 μL injections in the back, with each injection containing 100 nmol of peptide. […]
Determination of Antibody Production ELISA plates (eBioscience) were coated with 20 μg/mL of peptide or 0.5 μg/mL of whole protein in PBS overnight at 4° C. […] The reaction was stopped using 50 μL of 1 M phosphoric acid and 100 μL of the solution was transferred to fresh plates and absorbance values were read at 450 nm. Absorbance values of PBS (no antigen) coated wells were subtracted to account for background. […]
Series [15] has as its system antigen-specific T cells in the draining lymph nodes. Kind of series: CD8 T cell responses after footpad immunization, tetramer staining of draining lymph nodes. The series is classed as in vivo, mice.
[16] abbreviates: peptide in PBS without added adjuvant, s.c., boost day 28, serum 7 days after boost.

As to n-RARADADARARADADA-c [RAD16-II], the Tissue responses result in series [1] and in series [2] was “Negligible tissue responses” in each case.

On to “ISQAVHAAHAEINEAGRSGSGQQKFQFQFEQQ-NH2 (C-terminus assumed) [O-Q11]”, for which, in [3], the “Localization of peptide assemblies” value is “localized to the draining lymph nodes”, the “Persistence of peptide assemblies in lymph nodes” value is listed as at most 6 wk and the “Time at which peptide assemblies were found at the cortex of the lymph nodes” value was at most 1 wk. In series [4], the Endotoxin is 0.08-0.28 EU/mL.

As for “H2N-ISQAVHAAHAEINEAGRSGSGFKFEFKFE-Am (H-ISQAVHAAHAEINEAGRSGSGFKFEFKFE-NH2; not fully specified (some residues)) [OVA-KFE8(L)]”, in series [5] (plates coated with free OVA peptide), the Dominant antibody isotype result was “IgG1”. In addition, in series [6], the “IFN-γ production by OT-II cells compared to wells coated with PBS or bare nanofibers” value is listed as “significantly higher levels” and the “IL-2 production by OT-II cells compared to wells coated with PBS or bare nanofibers” value is listed as “significantly higher levels”. In addition, the “Transferred OT-II cells that had proliferated (shift in CFSE intensity)” value in [7] is reported as “only background levels of proliferation”.

As for “Ac-QQKFQFQFEQQ-NH2 [Peptide Q11, Ac-QQKFQFQFEQQ-Am]”, the “Binding of streptavidin-gold to fibrils” value in series [8] is “negligible numbers of particles; also recorded: did not bind streptavidin-gold”. For the same substance, the results for the “Total IgG response” value in series [9] (delivered in CFA), in series [9] (delivered with or without CFA) and in series [9] (setting [16]) were “non-immunogenic even in CFA”, “did not raise any detectable IgG” and “did not elicit a response”, respectively. Also, in series [10], the “Transferred cells that proliferated (shift in CFSE intensity)” value is “negligible shift in CFSE intensity”. In addition, in [4], the Endotoxin is listed as 0.024-0.098 EU/mL. The “Cell death / cytotoxicity in primary cell cultures” value in [11] was “did not induce cell death”. Also, the Antibody responses entry in series [12] is given as “little to no antibody responses”.

With “NANPNANPNANPSGSGQQKFQFQFEQQ [(NANP)3-Q11]”, the “Antibody production in T cell receptor KO mice” value in [13] was “no antibody production”. Besides, in [14] (100 nmol), the “Spike in antibody levels after the boost” value is listed as “no spike in antibody levels”. In addition, the “Time for which antibodies were detectable” value in series [14] is “up to 28 wks”.

“H-ISQAVHAAHAEINEAGR-OH [OVA, H2N-ISQAVHAAHAEINEAGR-OH, reference compound]”: the “Total IgG response” value in [9] (setting [16]) is “did not raise detectable IgG; also recorded: did not elicit a response”. In addition, the IgG titer in series [9] (without adjuvant, baseline level of detection) was 10^2. Further, in series [5] (s.c., boost day 28), the “Total IgG antibody response” value is given as “did not raise any detectable IgG”.

For the substance “H2N-^DF^DK^DF^DE^DF^DK^DF^DEGGAAYSIINFEKL-Am [SIN-KFE8(D)]”, the “Effector CD8 T cell response: antigen-specific T cells in draining lymph nodes, compared with the enantiomer” value in series [15] (footpad, boost day 5, evaluated day 8) is listed as “significantly lower numbers of antigen-specific T cells”.

For “H2N-FKFEFKFEGGAAYSIINFEKL-Am (H-FKFEFKFEGGAAYSIINFEKL-NH2; not fully specified (some residues)) [SIN-KFE8(L)]”, in series [15] (boost day 28, evaluated day 32), the “Memory CD8 T cell response: antigen-specific T cells in lymph nodes, compared with the enantiomer” value is “significantly higher numbers of antigen-specific T cells”. For the same substance, the “Effector and memory CD8+ T cell responses / tetramer+ CD8 T cells” value in [15] (mouse, in vivo) is “robust effector and memory CD8+ T cell responses; also recorded: higher numbers of tetramer+CD8 T cells”.

The values above are taken from patent US9849174B2, “Methods and compositions related to immunogenic fibrils” (The Board of Regents of the University of Texas System, priority 2009, dated 2017).
